Key:
[1] = molecular target: SmTGR-U597C (Schistosoma mansoni, UniProt Q962Y6); experiment: X-ray crystallography fragment soaking and co-crystallization; type: binding; conditions: crystal structure of SmTGR-U597C, soaking or co-crystallization
[2] = molecular target: T1, SmTGR WT (Schistosoma mansoni, UniProt Q962Y6); experiment: biochemical
[3] = molecular target: T1, SmTGR WT; experiment: Steady-state competition experiments versus NADPH; type: biochemical; conditions: upon increasing compound concentration from 0 to 3 mM
[4] = molecular target: SmTGR-E330A/D334A (Schistosoma mansoni, UniProt Q962Y6, D334A/E330A); experiment: DTNB assay on SmTGR-E330A/D334A double mutant; type: biochemical; conditions: 500 μM compound
[5] = molecular target: T2, SmTGR-E337A (Schistosoma mansoni, UniProt Q962Y6, E337A); experiment: biochemical
T2 sequence (Q962Y6 1-598 E337A): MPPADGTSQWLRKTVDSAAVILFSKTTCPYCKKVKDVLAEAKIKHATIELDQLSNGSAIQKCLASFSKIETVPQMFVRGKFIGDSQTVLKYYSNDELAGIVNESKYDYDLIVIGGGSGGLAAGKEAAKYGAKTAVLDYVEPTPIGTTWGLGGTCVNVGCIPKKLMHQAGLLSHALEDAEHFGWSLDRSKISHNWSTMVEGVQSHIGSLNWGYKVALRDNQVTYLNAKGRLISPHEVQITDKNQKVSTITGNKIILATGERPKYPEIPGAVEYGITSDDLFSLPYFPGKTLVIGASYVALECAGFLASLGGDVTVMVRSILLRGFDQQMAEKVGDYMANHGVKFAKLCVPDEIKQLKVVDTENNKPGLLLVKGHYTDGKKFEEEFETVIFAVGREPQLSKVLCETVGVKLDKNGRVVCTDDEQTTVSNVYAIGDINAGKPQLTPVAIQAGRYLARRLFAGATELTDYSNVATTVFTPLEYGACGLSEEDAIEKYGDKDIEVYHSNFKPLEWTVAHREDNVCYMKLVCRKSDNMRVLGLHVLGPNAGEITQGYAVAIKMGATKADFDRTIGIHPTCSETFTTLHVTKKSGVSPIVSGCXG

Row | Compound | Binding site [1] | IC50 [2] [µM] | decrease of Vmax [3] | inhibition at 500 µM ([2]; read-out: % of inhibition at 500 μM) [%] | percentage of inhibition at 500 μM [4] [%] | IC50 [5] [µM]
1 | COc1nc2ccccc2nc1CCC(=O)O [Compound 1, 3-(3-methoxyquinoxalin-2-yl)propanoic acid] | Site 1 (both insoakingand in co-crystallization experiments) | > 3000 | – | – | – | –
2 | Cc1[nH]c2ccccc2c1CC(=O)O [Compound 2, 2-methylindole-3-acetic acid] | Site 1 | > 1000 | ~ 10% | – | – | –
3 | Nc1cccc2nsnc12 [Compound 3, 4-aminopiazthiole] | Site 2 | ~500 | – | 51.4 ± 4.1 | 48.1 ± 6.2 | –
4 | OCc1c[nH]c2ccccc12 [Compound 4, indole-3-carbinol] | Site 2 | 284 ± 12 | – | – | – | 283 ± 15
5 | Cc1ccc2c(O)c(C(=O)O)cnc2n1 [Compound 5, 4-hydroxy-7-methyl-1,8-naphthyridine-3-carboxylic acid] | Site 3 | – | – | – | – | –

Reference: publication PMC8273128 (ACS infectious diseases, 2021)
